Measured values: article PMC4694564 (Molecular pharmaceutics, 2015)

How the values were obtained:
[1] = molecular target: T1, carboxylesterase 2 (CES2) (Homo sapiens, UniProt O00748); test: inhibition of recombinant human CES2; format: biochemical
T1 sequence (O00748 27-559): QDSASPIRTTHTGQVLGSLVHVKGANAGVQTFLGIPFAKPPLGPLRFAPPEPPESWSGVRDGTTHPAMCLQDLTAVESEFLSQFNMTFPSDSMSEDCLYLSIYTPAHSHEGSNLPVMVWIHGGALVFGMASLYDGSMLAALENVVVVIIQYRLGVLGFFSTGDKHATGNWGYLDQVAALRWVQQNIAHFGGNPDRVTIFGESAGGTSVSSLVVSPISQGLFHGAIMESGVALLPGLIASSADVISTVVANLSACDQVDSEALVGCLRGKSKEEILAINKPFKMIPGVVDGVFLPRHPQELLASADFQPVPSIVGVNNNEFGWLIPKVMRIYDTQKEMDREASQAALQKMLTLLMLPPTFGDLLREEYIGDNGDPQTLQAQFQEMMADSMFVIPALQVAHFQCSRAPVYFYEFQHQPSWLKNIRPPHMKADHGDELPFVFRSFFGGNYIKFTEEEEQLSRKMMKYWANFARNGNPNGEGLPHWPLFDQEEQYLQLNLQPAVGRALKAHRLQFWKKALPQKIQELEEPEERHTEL

[2] = molecular target: T2, carboxylesterase 1 (CES1) (Homo sapiens, UniProt P23141); test: inhibition of recombinant human CES1; format: biochemical
T2 sequence (P23141 18-567): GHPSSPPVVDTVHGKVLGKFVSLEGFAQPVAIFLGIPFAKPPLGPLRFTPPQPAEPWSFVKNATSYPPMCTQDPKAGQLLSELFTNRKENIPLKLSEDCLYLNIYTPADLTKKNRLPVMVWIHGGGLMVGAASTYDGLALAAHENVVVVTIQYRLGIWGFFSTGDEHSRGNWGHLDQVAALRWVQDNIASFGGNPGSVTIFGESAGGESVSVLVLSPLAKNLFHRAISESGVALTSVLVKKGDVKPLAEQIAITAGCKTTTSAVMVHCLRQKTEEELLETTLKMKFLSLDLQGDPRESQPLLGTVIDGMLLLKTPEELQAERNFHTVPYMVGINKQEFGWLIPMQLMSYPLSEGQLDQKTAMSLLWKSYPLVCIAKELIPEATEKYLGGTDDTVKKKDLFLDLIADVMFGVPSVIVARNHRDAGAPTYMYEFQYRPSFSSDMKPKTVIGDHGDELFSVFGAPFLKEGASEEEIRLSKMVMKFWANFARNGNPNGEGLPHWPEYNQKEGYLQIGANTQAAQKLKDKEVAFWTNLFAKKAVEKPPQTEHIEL

purified protein = substrate: CCOC(=O)C1=C[C@@H](OC(CC)CC)[C@H](NC(C)=O)[C@@H](N)C1; test: purified protein; format: biochemical, Homo sapiens

## Cc1cc(OC(=O)NC2CCCCC2)ccc1F [WWL50, 4-fluoro-3-methylphenyl cyclohexylcarbamate]
[1]
  IC50: 429 ± 2.6 nM
[2]
  IC50: 4.3 ± 0.6 nM

B1: carboxylesterase 1 (CES1) (Homo sapiens) (protein)
chain: GHPSSPPVVDTVHGKVLGKFVSLEGFAQPVAIFLGIPFAKPPLGPLRFTPPQPAEPWSFVKNATSYPPMCTQDPKAGQLLSELFTNRKENIPLKLSEDCLYLNIYTPADLTKKNRLPVMVWIHGGGLMVGAASTYDGLALAAHENVVVVTIQYRLGIWGFFSTGDEHSRGNWGHLDQVAALRWVQDNIASFGGNPGSVTIFGESAGGESVSVLVLSPLAKNLFHRAISESGVALTSVLVKKGDVKPLAEQIAITAGCKTTTSAVMVHCLRQKTEEELLETTLKMKFLSLDLQGDPRESQPLLGTVIDGMLLLKTPEELQAERNFHTVPYMVGINKQEFGWLIPMQLMSYPLSEGQLDQKTAMSLLWKSYPLVCIAKELIPEATEKYLGGTDDTVKKKDLFLDLIADVMFGVPSVIVARNHRDAGAPTYMYEFQYRPSFSSDMKPKTVIGDHGDELFSVFGAPFLKEGASEEEIRLSKMVMKFWANFARNGNPNGEGLPHWPEYNQKEGYLQIGANTQAAQKLKDKEVAFWTNLFAKKAVEKPPQTEHIEL
Purified protein
  Km: 2900 µM
